Results: ChEMBL document CHEMBL1821577, “Discovery of GSK1997132B a novel centrally penetrant benzimidazole PPARγ partial agonist” (Bioorg Med Chem Lett, 2011)
In brackets after ≈: the same amount, converted by molar mass. Each block holds one compound with its values, some of them ahead of it.

Key:
[1] = molecular target: T1, Peroxisome proliferator-activated receptor gamma (Homo sapiens) (UniProt P37231); experiment: Activity at human PPARgamma by luciferase reporter gene assay; parameters: concentration or dose not given beside the values
T1 sequence (whole entry): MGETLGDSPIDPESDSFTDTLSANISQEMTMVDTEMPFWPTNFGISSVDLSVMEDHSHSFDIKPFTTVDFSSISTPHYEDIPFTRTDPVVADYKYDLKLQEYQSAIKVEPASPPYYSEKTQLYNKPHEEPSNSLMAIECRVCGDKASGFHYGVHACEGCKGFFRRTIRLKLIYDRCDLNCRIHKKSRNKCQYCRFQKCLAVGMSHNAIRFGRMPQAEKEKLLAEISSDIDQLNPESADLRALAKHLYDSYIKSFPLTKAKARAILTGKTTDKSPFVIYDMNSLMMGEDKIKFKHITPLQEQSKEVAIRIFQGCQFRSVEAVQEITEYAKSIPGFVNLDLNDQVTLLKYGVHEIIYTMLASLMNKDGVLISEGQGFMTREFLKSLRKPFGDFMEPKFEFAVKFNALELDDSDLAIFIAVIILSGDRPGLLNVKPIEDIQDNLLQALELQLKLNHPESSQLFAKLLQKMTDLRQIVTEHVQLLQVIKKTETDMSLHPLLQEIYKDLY

[2] = molecular target: T2, Peroxisome proliferator-activated receptor gamma (Homo sapiens, UniProt P37231); experiment: Partial agonist activity at human PPARgamma by luciferase reporter gene assay; format: functional
T2 sequence (P37231 whole entry): T1 sequence (whole entry)

[3] = Ratio of drug uptake in brain to blood at steady state in rat at 2 mg/kg/h, iv; format: ADME, organism-based; parameters: route intravenous
[4] = test system: Brain; experiment: Drug uptake in rat brain at steady state at 2 mg/kg/h, iv; format: ADME, organism-based; parameters: route intravenous; conditions: in vivo, read-out: Drug uptake
[5] = Fraction unbound in rat blood; format: ADME, tissue-based
[6] = Fraction unbound in rat brain; format: ADME, tissue-based
[7] = test system: Rattus norvegicus; experiment: Blood clearance at steady state in rat at 2 mg/kg/h, iv; format: ADME, organism-based; parameters: route intravenous; conditions: in vivo
[8] = test system: Liver microsomes; experiment: Intrinsic clearance in human liver microsome; format: ADME
[9] = molecular target: Cytochrome P450 2C9 (Homo sapiens, UniProt P11712); experiment: Inhibition of CYP2C9; format: ADME
[10] = test system: Brain; experiment: Free drug level rat brain at 1 mg/kg, iv; format: ADME, organism-based; parameters: dose 1 mg/kg, route intravenous; conditions: in vivo
[11] = molecular target: T3, Cytochrome P450 3A4 (Homo sapiens, UniProt P08684); experiment: Inhibition of CYP3A4 using DEF substrate; format: ADME
[12] = molecular target: T4, Cytochrome P450 1A2 (Homo sapiens, UniProt P05177); experiment: Inhibition of CYP1A2; format: ADME
T4 sequence (P05177 whole entry): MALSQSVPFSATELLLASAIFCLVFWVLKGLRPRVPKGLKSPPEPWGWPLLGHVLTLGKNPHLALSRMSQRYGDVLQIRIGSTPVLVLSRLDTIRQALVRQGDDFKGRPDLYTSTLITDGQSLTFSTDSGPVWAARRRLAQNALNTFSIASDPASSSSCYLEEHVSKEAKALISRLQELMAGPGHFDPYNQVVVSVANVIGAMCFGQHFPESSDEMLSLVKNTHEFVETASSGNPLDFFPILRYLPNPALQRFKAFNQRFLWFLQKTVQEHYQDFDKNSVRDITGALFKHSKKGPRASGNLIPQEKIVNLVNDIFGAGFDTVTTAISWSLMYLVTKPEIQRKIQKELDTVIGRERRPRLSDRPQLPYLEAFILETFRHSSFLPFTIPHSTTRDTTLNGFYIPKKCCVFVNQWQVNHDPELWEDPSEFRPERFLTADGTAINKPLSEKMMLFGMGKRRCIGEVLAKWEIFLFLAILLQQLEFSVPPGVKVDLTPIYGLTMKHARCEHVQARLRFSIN

[13] = Solubility of the compound in fasted state simulated intestinal fluid after 0.5 hrs; format: physicochemical
[14] = Solubility of the compound in fed state simulated intestinal fluid after 0.5 hrs; format: physicochemical
[15] = molecular target: Cytochrome P450 2D6 (Homo sapiens, UniProt P10635); experiment: Inhibition of CYP2D6; format: ADME
[16] = Solubility of the compound in simulated gastric fluid after 0.5 hrs; format: physicochemical
[17] = test system: P-gp (human MDR1); experiment: Permeability of the compound from apical to basolateral direction in dog MDCK2 expressing human MDR1 cells by PGP assay; format: ADME, cell-based, Canis lupus familiaris, MDCK-II; conditions: MDCK-MDR1, read-out: permeability
[18] = test system: Liver; experiment: Intrinsic clearance in rat liver S9 fraction; format: ADME, subcellular
[19] = molecular target: T3, Cytochrome P450 3A4; experiment: Inhibition of CYP3A4 using 7-benzyloxyquinoline as substrate; format: ADME
[20] = Solubility of the compound in water after 0.5 hrs; format: physicochemical
[21] = test system: Liver microsomes; experiment: Intrinsic clearance in rat liver microsome; format: ADME
[22] = test system: P-gp (human MDR1); experiment: Efflux ratio of permeability in dog MDCK2 expressing human MDR1 cells by PGP assay; format: ADME, cell-based, Canis lupus familiaris, MDCK-II; conditions: MDCK-MDR1
[23] = molecular target: Cytochrome P450 2C19 (Homo sapiens, UniProt P33261); experiment: Inhibition of CYP2C19; format: ADME
Sequence of Cytochrome P450 2C19 (P33261 whole entry): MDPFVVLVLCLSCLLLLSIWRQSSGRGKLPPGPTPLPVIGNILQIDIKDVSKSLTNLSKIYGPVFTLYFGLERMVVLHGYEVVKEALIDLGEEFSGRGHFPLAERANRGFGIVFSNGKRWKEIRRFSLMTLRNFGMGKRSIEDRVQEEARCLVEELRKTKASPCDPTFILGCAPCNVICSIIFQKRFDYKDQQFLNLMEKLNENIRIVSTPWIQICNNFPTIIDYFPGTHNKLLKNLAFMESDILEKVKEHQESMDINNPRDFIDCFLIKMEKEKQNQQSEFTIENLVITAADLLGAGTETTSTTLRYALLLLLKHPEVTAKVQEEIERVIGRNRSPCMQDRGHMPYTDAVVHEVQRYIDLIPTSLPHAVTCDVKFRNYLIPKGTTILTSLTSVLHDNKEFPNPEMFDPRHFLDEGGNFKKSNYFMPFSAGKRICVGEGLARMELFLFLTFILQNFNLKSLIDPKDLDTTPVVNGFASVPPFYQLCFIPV

T3 sequence (P08684 whole entry): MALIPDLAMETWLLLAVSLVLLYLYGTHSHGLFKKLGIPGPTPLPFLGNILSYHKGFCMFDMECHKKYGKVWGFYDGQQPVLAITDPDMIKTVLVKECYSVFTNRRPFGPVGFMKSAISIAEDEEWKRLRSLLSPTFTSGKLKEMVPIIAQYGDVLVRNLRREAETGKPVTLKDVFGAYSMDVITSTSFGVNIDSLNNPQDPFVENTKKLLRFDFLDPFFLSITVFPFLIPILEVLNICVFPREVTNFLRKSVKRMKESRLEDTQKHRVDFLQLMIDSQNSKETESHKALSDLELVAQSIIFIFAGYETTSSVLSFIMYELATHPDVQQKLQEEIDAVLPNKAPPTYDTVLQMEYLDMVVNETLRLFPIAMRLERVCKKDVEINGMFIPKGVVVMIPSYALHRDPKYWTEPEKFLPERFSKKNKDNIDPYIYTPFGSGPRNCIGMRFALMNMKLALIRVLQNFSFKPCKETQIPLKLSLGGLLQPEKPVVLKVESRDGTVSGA
Sequence of Cytochrome P450 2C9 (P11712 whole entry): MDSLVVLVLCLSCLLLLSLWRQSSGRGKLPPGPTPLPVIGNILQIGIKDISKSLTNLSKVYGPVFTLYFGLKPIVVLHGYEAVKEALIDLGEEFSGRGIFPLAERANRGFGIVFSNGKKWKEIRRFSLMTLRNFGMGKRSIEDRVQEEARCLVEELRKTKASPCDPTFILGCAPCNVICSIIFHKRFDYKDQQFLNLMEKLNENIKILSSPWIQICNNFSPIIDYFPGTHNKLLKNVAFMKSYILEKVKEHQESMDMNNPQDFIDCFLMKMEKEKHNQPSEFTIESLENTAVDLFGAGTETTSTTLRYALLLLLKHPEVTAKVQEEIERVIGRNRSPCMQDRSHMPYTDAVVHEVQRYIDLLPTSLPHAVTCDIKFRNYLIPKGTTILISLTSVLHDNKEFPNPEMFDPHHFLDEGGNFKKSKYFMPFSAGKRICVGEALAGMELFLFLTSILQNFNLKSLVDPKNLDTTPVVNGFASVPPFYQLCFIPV
Sequence of Cytochrome P450 2D6 (P10635 whole entry): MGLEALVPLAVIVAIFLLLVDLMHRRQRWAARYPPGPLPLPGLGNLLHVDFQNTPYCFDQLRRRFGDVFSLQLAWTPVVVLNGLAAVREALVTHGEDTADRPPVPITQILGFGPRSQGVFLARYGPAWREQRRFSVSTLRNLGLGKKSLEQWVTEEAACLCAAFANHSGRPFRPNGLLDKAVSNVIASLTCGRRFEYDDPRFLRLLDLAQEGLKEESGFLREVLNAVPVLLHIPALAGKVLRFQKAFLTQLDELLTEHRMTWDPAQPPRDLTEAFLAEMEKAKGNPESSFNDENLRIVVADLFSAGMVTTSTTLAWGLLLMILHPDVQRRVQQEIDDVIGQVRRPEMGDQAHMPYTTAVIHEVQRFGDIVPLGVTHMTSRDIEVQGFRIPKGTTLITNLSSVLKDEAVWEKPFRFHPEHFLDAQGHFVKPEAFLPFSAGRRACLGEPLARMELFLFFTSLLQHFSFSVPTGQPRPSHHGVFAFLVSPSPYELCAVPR

Structure (SMILES): Cc1nc2cc(C(=O)NCc3ccccc3)ccc2n1Cc1ccc(Cl)c(Cl)c1
- Activity [1]: 83%
- EC50 [2]: 398 nM

Structure (SMILES): CC[C@@H](NC(=O)c1ccc2c(c1)nc(C(F)(F)F)n2Cc1ccc(Cl)c(Cl)c1)c1ccccc1
- Activity [1]: 60%
- EC50 [2]: 251 nM

Structure (SMILES): CC[C@@H](NC(=O)c1ccc2c(c1)ncn2Cc1ccccc1OC)c1ccccc1
- Activity [1]: 75%
- EC50 [2]: 5.01 nM

Structure (SMILES): CC[C@@H](NC(=O)c1ccc2c(c1)nc(C)n2Cc1cccc(Cl)c1)c1ccccc1
- Activity [1]: 76%
- EC50 [2]: 79.4 nM

Structure (SMILES): CC[C@H](NC(=O)c1ccc2c(c1)nc(C)n2Cc1ccc(Cl)c(Cl)c1)c1ccccc1
- Activity [1]: 21%
- EC50 [2]: 251 nM

Structure (SMILES): CC[C@@H](NC(=O)c1ccc2c(c1)nc(C1CC1)n2Cc1ccc(Cl)c(Cl)c1)c1ccccc1
- Activity [1]: 58%
- EC50 [2]: 126 nM

Structure (SMILES): CC[C@@H](NC(=O)c1ccc2c(c1)nc(C)n2Cc1ccc(Cl)cc1)c1ccccc1
- Activity [1]: 66%
- EC50 [2]: 31.6 nM

Structure (SMILES): CC[C@@H](NC(=O)c1ccc2c(c1)nc(C)n2Cc1ccccc1Cl)c1ccccc1
- Activity [1]: 80%
- EC50 [2]: 50.1 nM

Structure (SMILES): CC[C@@H](NC(=O)c1ccc2c(c1)ncn2Cc1ccccc1F)c1ccccc1
- Activity [1]: 80%
- EC50 [2]: 7.94 nM

Structure (SMILES): CCC(=O)c1nc2cc(C(=O)N[C@H](CC)c3ccccc3)ccc2n1Cc1ccc(Cl)c(Cl)c1
- Activity [1]: 75%
- EC50 [2]: 79.4 nM

Structure (SMILES): CC[C@@H](NC(=O)c1ccc2c(c1)nc(C)n2Cc1ccc(F)cc1)c1ccccc1
- Activity [1]: 74%
- EC50 [2]: 158 nM

Further lines, results first:

- Activity [1]: 74%
- EC50 [2]: 501 nM
Structure (SMILES): CC[C@@H](NC(=O)c1ccc2c(c1)ncn2Cc1cccnc1)c1ccccc1

- Kp [3]: 0.22
- concentration [4]: 446 nM
- fraction unbound [5]: 0.175
- fraction unbound [6]: 0.115
- clearance [7]: 30 mL/min/kg
- CL [8]: 0.5 mL/min/g
- IC50 [9]: 42000 nM
- Drug uptake [10]: 51 nM
- IC50 [11]: 45000 nM
- Activity [1]: 68%
- IC50 [12]: 14000 nM
- solubility at 0.5 h [13]: 80 µg/mL (≈ 197 µM)
- solubility at 0.5 h [14]: 220 µg/mL (≈ 541 µM)
- IC50 [15]: 65000 nM
- solubility at 0.5 h [16]: > 1000 µg/mL
- Papp A→B [17]: 122 ×10⁻⁶ cm/s
- CL [18]: 1.6 mL/min/g
- IC50 [19]: > 100000 nM
- solubility at 0.5 h [20]: 330 µg/mL (≈ 812 µM)
- CL [21]: 1.2 mL/min/g
- efflux ratio [22]: 1.6
- EC50 [2]: 10 nM
- IC50 [23]: 87000 nM
Structure (SMILES): CC[C@@H](NC(=O)c1ccc2c(c1)ncn2Cc1ncc(F)cc1F)c1ccccc1

- Activity [1]: 85%
- EC50 [2]: 6.31 nM
Structure (SMILES): CC[C@@H](NC(=O)c1ccc2c(c1)ncn2Cc1ccc(F)c(Cl)c1)c1ccccc1

- Activity [1]: 76%
- EC50 [2]: 0.501 nM
Structure (SMILES): CC[C@@H](NC(=O)c1ccc2c(c1)ncn2Cc1ncc(Cl)cc1Cl)c1ccccc1

- Activity [1]: 74%
- EC50 [2]: 0.794 nM
Structure (SMILES): CC[C@@H](NC(=O)c1ccc2c(c1)ncn2Cc1ccc(Cl)cc1F)c1ccccc1

- Kp [3]: 0.71
- concentration [4]: 655 nM
- clearance [7]: 84 mL/min/kg
- CL [8]: 0.6 mL/min/g
- Activity [1]: 71%
- CL [18]: 10 mL/min/g
- CL [21]: 3.3 mL/min/g
- EC50 [2]: 2.51 nM
Structure (SMILES): CC[C@@H](NC(=O)c1ccc2c(c1)ncn2Cc1ccc(Cl)c(Cl)c1)c1ccccc1
